Experimental data as given in paper PMC5794799, “Kaempferol mitigates Endoplasmic Reticulum Stress Induced Cell Death by targeting caspase 3/7” (Scientific Reports, 2018).

Target: T1, caspase-3 (Homo sapiens, UniProt P42574)
T1 construct: gene CASP3; recombinant active caspase-3 enzyme
T1 sequence (P42574 29-175): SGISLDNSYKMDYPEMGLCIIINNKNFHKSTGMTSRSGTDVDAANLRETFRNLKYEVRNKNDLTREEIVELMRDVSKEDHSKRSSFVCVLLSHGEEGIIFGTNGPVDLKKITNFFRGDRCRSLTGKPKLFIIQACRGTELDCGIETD
T1 sequence (P42574 176-277): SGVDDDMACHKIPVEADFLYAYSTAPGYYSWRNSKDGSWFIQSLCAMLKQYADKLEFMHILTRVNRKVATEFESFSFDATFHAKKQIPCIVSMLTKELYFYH
Experiment: recombinant caspase-3 activity assay with luminogenic Z-DEVD-aminoluciferin (Caspase-Glo […]), dose response
Format: biochemical

- IC50: 5.65 µM
SMILES: O=c1c(O)c(-c2ccc(O)cc2)oc2cc(O)cc(O)c12 [kaempferol]
